Molecular target: T1, GPR6 receptor expressed in CHO-K1 cells (Homo sapiens, UniProt P46095)
T1 construct: expressed in transfected cells
Assay: In vitro inhibition of cAMP (EC50), cell-based HTRF cAMP assay
Conditions: inhibition of constitutive cAMP activity of GPR6 in CHO-K1 cells
Description: I. In Vitro Inhibition of cAMP (EC50)
This cell based assay measures the ability of test compounds to inhibit the constitutive cAMP activity of GPR6 receptor expressed in CHO-K1 cells. CHO cells are stably expressed with GPR6 receptor, whose expression is controlled by a tetracycline inducible element. The cells were cultured in medium containing F12K, 10% FBS, 1% Penn/Strep, 200 μg/mL Hygromycin. GPR6 receptor expression is induced for 20 hours with 2 μg/mL doxycycline (Sigma D9891) in growth media. After addition of doxycycline, the cells are plated at a density of 450-750 cells per well in 96-well half-volume black tissue culture plates (Costar) and placed in an incubator (37° C., 5% CO2) for 20 hours prior to cAMP assays.
Culture media is removed from the cells and they are washed with 50 μL/well of Ringer's Buffer (MgCl2 0.047 mg/mL, NaH2PO4 0.18 mg/mL, Na2HPO4 0.1 mg/mL, KCl 0.34 mg/mL, NaHCO3 1.26 mg/mL, D-glucose 1.8 mg/mL, NaCl 7 mg/mL; pH=7.4). The test compounds are suspended in DMSO, diluted in Ringer's Buffer containing 0.5% fatty acid free BSA plus 300 μM IBMX, and incubated on the cells for 45 minutes at 37° C. and 5% CO2. After incubation, the cells are conditioned for 10 minutes at room temp with Eu-cAMP tracer solution from a Perkin Elmer Lance HTRF Ultra cAMP assay kit (TRF0263). Then ULight™-anti-cAMP solution from the Lance HTRF kit is added and incubated on a shaker at room temp for 1 hour prior to HTRF detection in a Perkin Elmer Envision plate reader. EC50 curves are generated with a four-parameter logistic equation using GraphPad Prism 5.03.
Table 1 lists biological assay data (in vitro inhibition of cAMP) for some of the compounds shown in the examples, where larger pEC50 values represent higher activity or potency. All of the compounds shown in Table 1 were tested in accordance with a cell-based assay which measures the ability of test compounds to inhibit the constitutive cAMP activity of GPR6 receptor expressed in CHO-K1 cells (reported as pEC50). The assay is described in the specification under the heading “In vitro inhibition of cAMP (EC50).”

T1 sequence (P46095 whole entry): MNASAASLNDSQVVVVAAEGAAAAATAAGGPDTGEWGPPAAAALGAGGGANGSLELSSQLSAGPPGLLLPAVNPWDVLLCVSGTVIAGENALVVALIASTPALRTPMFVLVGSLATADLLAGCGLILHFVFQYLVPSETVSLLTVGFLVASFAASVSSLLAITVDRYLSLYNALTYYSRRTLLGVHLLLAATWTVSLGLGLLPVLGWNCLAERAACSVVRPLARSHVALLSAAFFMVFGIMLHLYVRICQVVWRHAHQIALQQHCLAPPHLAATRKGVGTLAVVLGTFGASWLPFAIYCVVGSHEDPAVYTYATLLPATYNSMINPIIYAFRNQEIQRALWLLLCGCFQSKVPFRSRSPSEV

Row | SMILES | pEC50, in vitro inhibition of cAMP
1 | Cc1cc(C(=O)Nc2cc(C#N)ccc2N2CCC(Oc3ccc(F)cc3F)CC2)c(=O)n(C)c1C [Example 184, N-(5-cyano-2-(4-(2,4-difluorophenoxy)piperidin-1-yl)phenyl)-1,5,6-trimethyl-2-oxo-1,2-dihydropyridine-3-carboxamide] | 6.8
2 | Cc1nc(C(=O)Nc2cc(C#N)ccc2N2CCC(Oc3ccc(F)cc3F)CC2)ccc1F [Example 137, N-(5-cyano-2-(4-(2,4-difluorophenoxy)piperidin-1-yl)phenyl)-5-fluoro-6-methylpicolinamide] | 7.1
3 | Cn1ccnc1C(=O)Nc1cc(C#N)ccc1N1CCC(Oc2ccc(F)cc2F)CC1 [Example 50, N-(5-cyano-2-(4-(2,4-difluorophenoxy)piperidin-1-yl)phenyl)-1-methyl-1H-imidazole-2-carboxamide] | 6.2
4 | Cn1cccc(C(=O)Nc2cnc(Cl)cc2N2CCC(Oc3ccc(F)cc3F)CC2)c1=O [Example 17, N-(6-chloro-4-(4-(2,4-difluorophenoxy)piperidin-1-yl)pyridin-3-yl)-1-methyl-2-oxo-1,2-dihydropyridine-3-carboxamide] | 7.2
5 | N#Cc1ccc(N2CCC(Oc3ccc(F)cc3F)CC2)c(NC(=O)c2ncc(F)cc2F)c1 [Example 49, N-(5-cyano-2-(4-(2,4-difluorophenoxy)piperidin-1-yl)phenyl)-3,5-difluoropicolinamide] | 6.5
6 | COc1ccc(C)cc1C(=O)Nc1cc(C#N)ccc1N1CCC(Oc2ccc(F)cc2F)CC1 [Example 237, N-(5-cyano-2-(4-(2,4-difluorophenoxy)piperidin-1-yl)phenyl)-2-methoxy-5-methylbenzamide] | 6.7
7 | CCOc1ncccc1C(=O)Nc1cc(C#N)ccc1N1CCC(Oc2ccc(F)cc2F)CC1 [Example 28, N-(5-cyano-2-(4-(2,4-difluorophenoxy)piperidin-1-yl)phenyl)-2-ethoxynicotinamide] | 6.6
8 | COc1ccnc(C(=O)Nc2cc(C#N)ccc2N2CCC(Oc3ccc(F)cc3F)CC2)c1 [Example 109, N-(5-cyano-2-(4-(2,4-difluorophenoxy)piperidin-1-yl)phenyl)-4-methoxypicolinamide] | 6.7
9 | Cc1nccnc1C(=O)Nc1cc(C#N)ccc1N1CCC(Oc2ccc(F)cc2F)CC1 [Example 115, N-(5-cyano-2-(4-(2,4-difluorophenoxy)piperidin-1-yl)phenyl)-3-methylpyrazine-2-carboxamide] | 6.6
10 | Cc1csc(C(=O)Nc2cc(C#N)ccc2N2CCC(Oc3ccc(F)cc3F)CC2)n1 [Example 51, N-(5-cyano-2-(4-(2,4-difluorophenoxy)piperidin-1-yl)phenyl)-4-methylthiazole-2-carboxamide] | 6.8
11 | COc1ncccc1C(=O)Nc1cnc(C(F)(F)F)cc1N1CCC(Oc2ccc(F)cc2F)CC1 [Example 289] | 6.9
12 | COc1nc(C)ccc1C(=O)Nc1cnc(C#N)nc1N1CCC(Oc2ccc(F)cc2F)CC1 [Example 280, N-(2-cyano-4-(4-(2,4-difluorophenoxy)piperidin-1-yl)pyrimidin-5-yl)-2-methoxy-6-methylnicotinamide] | 7.1
13 | Cc1csc2ncc(C(=O)Nc3cc(C#N)ccc3N3CCC(Oc4ccc(F)cc4F)CC3)c(=O)n12 [Example 218, N-(5-cyano-2-(4-(2,4-difluorophenoxy)piperidin-1-yl)phenyl)-3-methyl-5-oxo-5H-thiazolo[3,2-a]pyrimidine-6-carboxamide] | 6.8
14 | COc1nc(C)ccc1C(=O)Nc1cc(C#N)c(F)cc1N1CCC(Oc2ccc(F)cc2F)CC1 [Example 39, N-(5-cyano-2-(4-(2,4-difluorophenoxy)piperidin-1-yl)-4-fluorphenyl)-2-methoxy-6-methylnicotinamide] | 7.3
15 | Cc1nonc1C(=O)Nc1cc(C#N)ccc1N1CCC(Oc2ccc(F)cc2F)CC1 [Example 119, N-(5-cyano-2-(4-(2,4-difluorophenoxy)piperidin-1-yl)phenyl)-4-methyl-1,2,5-oxadiazole-3-carboxamide] | <5.7
16 | COc1ccnc(C(=O)Nc2cc(C#N)ccc2N2CCC(Oc3ccc(F)cc3F)CC2)n1 [Example 138, N-(5-cyano-2-(4-(2,4-difluorophenoxy)piperidin-1-yl)phenyl)-4-methoxypyrimidine-2-carboxamide] | <4.5
17 | N#Cc1ccc(N2CCC(Oc3ccc(F)cc3F)CC2)c(NC(=O)c2cccc3c2OCC3)c1 [Example 27, N-(5-cyano-2-(4-(2,4-difluorophenoxy)piperidin-1-yl)phenyl)-2,3-dihydrobenzofuran-7-carboxamide] | 7.4

Continued, values first:

Row | pEC50, in vitro inhibition of cAMP | SMILES
18 | 7.4 | Cn1cccc(C(=O)Nc2cc(C#N)cnc2N2CCC(Oc3ccc(F)cc3F)CC2)c1=O [Example 58, N-(5-cyano-2-(4-(2,4-difluorophenoxy)piperidin-1-yl)pyridin-3-yl)-1-methyl-2-oxo-1,2-dihydropyridine-3-carboxamide]
19 | 6.5 | COc1nn(C)cc1C(=O)Nc1cc(C#N)cnc1N1CCN(Cc2cccc(OC(F)F)c2)CC1 [Example 164, N-(5-cyano-2-(4-(3-(difluoromethoxy)benzyl)piperazin-1-yl)pyridin-3-yl)-3-methoxy-1-methyl-1H-pyrazole-4-carboxamide]
20 | 7.2 | COc1cc(F)ccc1C(=O)Nc1cc(C#N)cnc1N1CCC(Oc2ccc(F)cc2F)CC1 [Example 56, N-(5-cyano-2-(4-(2,4-difluorobenoxy)piperidin-1-yl)pyridin-3-yl)-4-fluoro-2-methoxybenzamide]
21 | 7.2 | COc1ncccc1C(=O)Nc1cc(C#N)nnc1N1CCC(Oc2ccc(F)cc2F)CC1 [Example 282, N-(6-cyano-3-(4-(2,4-difluorophenoxy)piperidin-1-yl)pyridazin-4-yl)-2-methoxynicotinamide]
22 | 7.1 | COc1nn(C)cc1C(=O)Nc1cc(C#N)cnc1N1CCN(Cc2c(F)cc(Cl)cc2F)CC1 [Example 174, N-(2-(4-(4-chloro-2,6-difluorobenzyl)piperazin-1-yl)-5-cyanopyridin-3-yl)-3-methoxy-1-methyl-1H-pyrazole-4-carboxamide]
23 | 7.3 | N#Cc1cnc(N2CCC(Oc3ccc(F)cc3F)CC2)c(NC(=O)c2cc(Cl)ccn2)c1 [Example 55, 4-chloro-V-(5-cyano-2-(4-(2,4-difluorophenoxy)piperidin-1-yl)pyridin-3-yl)picolinamide]
24 | 7.1 | COc1ncccc1C(=O)Nc1cc(C#N)ccc1N1CCN(Cc2ccc(F)c(F)c2)CC1 [Example 246, N-(5-cyano-2-(4-(3,4-difluorobenzyl)piperazin-1-yl)phenyl)-2-methoxynicotinamide]
25 | 7.3 | COc1ccc(OC2CCN(c3ccc(C#N)cc3NC(=O)c3cccn(C)c3=O)CC2)c(F)c1 [Example 29, N-(5-cyano-2-(4-(2-fluoro-4-methoxyphenoxy)piperidin-1-yl)phenyl)-1-methyl-2-oxo-1,2-dihydropyridine-3-carboxamide]
26 | 6.8 | COc1ncccc1C(=O)Nc1cc(C#N)ccc1N1CCN(Cc2cccc(F)c2)CC1 [Example 240, N-(5-cyano-2-(4-(3-fluorobenzyl)piperazin-1-yl)phenyl)-2-methoxynicotinamide]
